Like-named read-outs stand apart in the source and are kept apart here.
Molecular target: T1, human Cav3.2 T-type Ca2+ channel (Homo sapiens, UniProt O95180)
T1 construct: expressed in transfected cells; host or cells: KJMGER8 cells (Namalwa cell-derived cell line)
Assay: Inhibitory effect for intracellular calcium response via Cav3.2 T-type Ca2+ channels (FLIPR Calcium 3 Assay Kit)
Assay type: cell-based

[1] = human Cav3.2-expressing KJMGER8 cells (Namalwa-derived), calcium response induced by 5 mmol/L CaCl2, 3 μmol/L mibefradil as reference, read-out: IC50 for the human Cav3.2 T-type Ca2+ current

T1 sequence (O95180 whole entry): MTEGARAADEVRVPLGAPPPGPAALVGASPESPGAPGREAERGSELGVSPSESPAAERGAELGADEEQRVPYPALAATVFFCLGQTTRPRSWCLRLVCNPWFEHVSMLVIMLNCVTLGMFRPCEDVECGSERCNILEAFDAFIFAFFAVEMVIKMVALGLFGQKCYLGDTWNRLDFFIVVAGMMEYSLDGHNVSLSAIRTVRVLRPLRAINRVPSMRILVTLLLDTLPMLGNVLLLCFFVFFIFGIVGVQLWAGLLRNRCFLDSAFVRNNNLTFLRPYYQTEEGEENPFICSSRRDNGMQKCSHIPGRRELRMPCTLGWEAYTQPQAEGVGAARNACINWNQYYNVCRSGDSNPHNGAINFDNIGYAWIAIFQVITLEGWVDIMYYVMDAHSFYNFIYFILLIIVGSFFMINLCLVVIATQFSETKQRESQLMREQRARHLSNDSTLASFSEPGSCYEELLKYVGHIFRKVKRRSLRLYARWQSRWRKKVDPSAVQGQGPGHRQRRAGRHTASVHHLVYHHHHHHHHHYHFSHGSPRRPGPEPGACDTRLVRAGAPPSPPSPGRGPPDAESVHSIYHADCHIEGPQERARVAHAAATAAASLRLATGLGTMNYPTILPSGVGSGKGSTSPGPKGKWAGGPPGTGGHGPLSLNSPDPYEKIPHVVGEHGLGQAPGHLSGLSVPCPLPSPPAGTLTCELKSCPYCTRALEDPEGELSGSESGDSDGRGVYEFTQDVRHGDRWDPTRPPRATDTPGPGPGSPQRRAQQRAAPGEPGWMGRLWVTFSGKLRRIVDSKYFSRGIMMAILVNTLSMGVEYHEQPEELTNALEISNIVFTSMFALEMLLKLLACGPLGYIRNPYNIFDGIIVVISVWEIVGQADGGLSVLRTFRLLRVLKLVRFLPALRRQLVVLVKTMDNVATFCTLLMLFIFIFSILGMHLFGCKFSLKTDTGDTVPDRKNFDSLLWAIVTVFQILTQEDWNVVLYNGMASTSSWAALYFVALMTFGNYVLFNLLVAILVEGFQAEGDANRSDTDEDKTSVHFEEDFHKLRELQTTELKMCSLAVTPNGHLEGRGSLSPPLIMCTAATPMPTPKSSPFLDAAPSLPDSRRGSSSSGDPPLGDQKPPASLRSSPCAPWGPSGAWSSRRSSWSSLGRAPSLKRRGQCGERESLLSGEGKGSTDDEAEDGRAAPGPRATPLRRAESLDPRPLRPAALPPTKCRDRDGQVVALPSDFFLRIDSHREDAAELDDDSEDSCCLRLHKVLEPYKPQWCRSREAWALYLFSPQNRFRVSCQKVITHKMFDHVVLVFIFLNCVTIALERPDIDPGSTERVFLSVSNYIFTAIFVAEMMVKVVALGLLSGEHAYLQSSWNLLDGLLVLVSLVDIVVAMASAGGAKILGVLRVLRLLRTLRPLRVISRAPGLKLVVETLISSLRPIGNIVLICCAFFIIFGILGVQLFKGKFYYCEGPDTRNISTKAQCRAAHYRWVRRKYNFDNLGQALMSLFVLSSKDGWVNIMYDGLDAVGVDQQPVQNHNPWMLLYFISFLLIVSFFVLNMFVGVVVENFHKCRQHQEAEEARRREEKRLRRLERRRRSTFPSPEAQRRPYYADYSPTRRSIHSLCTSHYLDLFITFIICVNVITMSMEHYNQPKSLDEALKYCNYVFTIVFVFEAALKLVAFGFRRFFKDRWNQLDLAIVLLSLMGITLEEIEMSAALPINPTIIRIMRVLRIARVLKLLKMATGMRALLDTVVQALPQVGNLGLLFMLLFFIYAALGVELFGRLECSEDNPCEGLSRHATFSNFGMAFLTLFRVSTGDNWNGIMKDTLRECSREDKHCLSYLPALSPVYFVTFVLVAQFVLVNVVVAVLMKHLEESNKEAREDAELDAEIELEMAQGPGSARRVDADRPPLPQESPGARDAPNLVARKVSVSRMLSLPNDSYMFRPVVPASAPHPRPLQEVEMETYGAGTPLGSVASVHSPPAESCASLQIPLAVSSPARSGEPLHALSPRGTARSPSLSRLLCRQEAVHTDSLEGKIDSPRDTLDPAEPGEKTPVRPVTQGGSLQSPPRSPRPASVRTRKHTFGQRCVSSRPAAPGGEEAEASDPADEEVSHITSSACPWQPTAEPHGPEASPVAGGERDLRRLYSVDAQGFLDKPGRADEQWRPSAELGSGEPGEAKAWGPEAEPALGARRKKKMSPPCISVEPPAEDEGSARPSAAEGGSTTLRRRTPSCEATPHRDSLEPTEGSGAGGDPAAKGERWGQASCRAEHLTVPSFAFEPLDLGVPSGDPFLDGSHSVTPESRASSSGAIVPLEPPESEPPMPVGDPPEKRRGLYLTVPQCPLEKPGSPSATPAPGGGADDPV

| Compound | IC50 | IC50 [1] |
| --- | --- | --- |
| O=C(NCC1(CO)CC1)c1cc(Cl)n2c(CC3CCC(F)(F)CC3)c(C(F)(F)F)nc2c1 [Compound 174, 5-Chloro-3-[(4,4-difluorocyclohexyl)methyl]-N-{[1-(hydroxymethyl)cyclopropyl]methyl}-2-(trifluoromethyl)imidazo[1,2-a]pyridine-7-carboxamide] | ≤ 100 nM | – |
| N#CC1(NC(=O)c2cc(Cl)n3c(CC4CCC(F)(F)CC4)c(C(F)(F)F)nc3c2)CC1 [Compound 175, 5-Chloro-N-(1-cyanocyclopropyl)-3-[(4,4-difluorocyclohexyl)methyl]-2-(trifluoromethyl)imidazo[1,2-a]pyridine-7-carboxamide] | ≤ 100 nM | – |
| CC(C)c1nc2cc(C(=O)NCC(C)(F)F)cc(C#N)n2c1CC1CCC(F)(F)CC1 [Compound 177, 5-Cyano-3-[(4,4-difluorocyclohexyl)methyl]-N-(2,2-difluoropropyl)-2-isopropylimidazo[1,2-a]pyridine-7-carboxamide] | ≤ 100 nM | – |
| CC(F)(F)c1nc2cc(C(=O)N[C@H]3C[C@@H]4CC[C@H]3O4)cc(C=O)n2c1CC1CCC(F)(F)CC1 [Compound 179, N-[(1R,2S,4S)-7-Oxabicyclo[2.2.1]heptan-2-yl]-3-[(4,4-difluorocyclohexyl)methyl]-2-(1,1-difluoroethyl)-5-formylimidazo[1,2-a]pyridine-7-carboxamide] | ≤ 100 nM | – |
| C[C@H](NC(=O)c1cc(C#N)n2c(CC3CCC(F)(F)CC3)c(C(F)(F)F)nc2c1)C(=O)N(C)C [Compound 187, (S)-5-Cyano-3-[(4,4-difluorocyclohexyl)methyl]-N-[1-(dimethylamino)-1-oxopropan-2-yl]-2-(trifluoromethyl)imidazo[1,2-a]pyridine-7-carboxamide] | ≤ 100 nM | – |
| N#Cc1cc(C(=O)NC23CCN(CC2)C3)cc2nc(C(F)(F)F)c(CC3CCC(F)(F)CC3)n12 [Compound 188, N-(1-Azabicyclo[2.2.1]heptan-4-yl)-5-cyano-3-[(4,4-difluorocyclohexyl)methyl]-2-(trifluoromethyl)imidazo[1,2-a]pyridine-7-carboxamide] | ≤ 100 nM | – |
| [2H]C([2H])([2H])OC(C)(C)CNC(=O)c1cc(CO)n2c(CC3CCC(F)(F)CC3)c(C(C)(F)F)nc2c1 [Compound 192, 3-[(4,4-Difluorocyclohexyl)methyl]-2-(1,1-difluoroethyl)-5-(hydroxymethyl)-N-(2-methoxy-d3-2-methylpropyl)imidazo[1,2-a]pyridine-7-carboxamide] | ≤ 100 nM | – |
| Cc1c(C(=O)NC2CCOCC2)cc2nc(C(F)(F)F)c(CC3CCC(F)(F)CC3)n2c1Cl [Compound 195, 5-Chloro-3-[(4,4-difluorocyclohexyl)methyl]-6-methyl-N-(tetrahydro-2H-pyran-4-yl)-2-(trifluoromethyl)imidazo[1,2-a]pyridine-7-carboxamide] | ≤ 100 nM | – |
| CC(C)(C)NC(=O)c1cc(C#N)n2c(CC3CCC(F)(F)CC3)c(C(F)(F)F)nc2c1 [Compound 198, N-tert-Butyl-5-cyano-3-[(4,4-difluorocyclohexyl)methyl]-2-(trifluoromethyl)imidazo[1,2-a]pyridine-7-carboxamide] | – | ≤ 100 nM |
| N#Cc1cc(C(=O)NC(=O)C2CC2)cc2nc(C(F)(F)F)c(CC3CCC(F)(F)CC3)n12 [Compound 202, 5-Cyano-N-(cyclopropanecarbonyl)-3-[(4,4-difluorocyclohexyl)methyl]-2-(trifluoromethyl)imidazo[1,2-a]pyridine-7-carboxamide] | ≤ 100 nM | – |
| CC(C)(C)C(=O)NC(=O)c1cc(C#N)n2c(CC3CCC(F)(F)CC3)c(C(F)(F)F)nc2c1 [Compound 203, 5-Cyano-3-[(4,4-difluorocyclohexyl)methyl]-N-pivaloyl-2-(trifluoromethyl)imidazo[1,2-a]pyridine-7-carboxamide] | ≤ 100 nM | – |
| CC1(C)CC(NC(=O)c2cc3nc(C(F)(F)F)c(CC4CCC(F)(F)CC4)n3c(Cl)c2Cl)CCO1 (stereo not drawn) [Compound 205, 5,6-Dichloro-3-[(4,4-difluorocyclohexyl)methyl]-N-(2,2-dimethyltetrahydro-2H-pyran-4-yl)-2-(trifluoromethyl)imidazo[1,2-a]pyridine-7-carboxamide] | – | ≤ 100 nM |
| Cc1cc(C(=O)NC2CCOCC2)cc2nc(C(F)(F)F)c(Cc3ccccc3)n12 [Compound 206, 3-Benzyl-5-methyl-N-(tetrahydro-2H-pyran-4-yl)-2-(trifluoromethyl)imidazo[1,2-a]pyridine-7-carboxamide] | ≤ 100 nM | – |
| Cc1ccc(Cc2c(C(F)(F)F)nc3cc(C(=O)NC4CCOCC4)cc(C)n23)cc1 [Compound 207, 5-Methyl-3-(4-methylbenzyl)-N-(tetrahydro-2H-pyran-4-yl)-2-(trifluoromethyl)imidazo[1,2-a]pyridine-7-carboxamide] | ≤ 100 nM | – |
| COc1ccc(Cc2c(C(F)(F)F)nc3cc(C(=O)NC4CCOCC4)cc(C)n23)cc1 [Compound 209, 3-(4-Methoxybenzyl)-5-methyl-N-(tetrahydro-2H-pyran-4-yl)-2-(trifluoromethyl)imidazo[1,2-a]pyridine-7-carboxamide] | ≤ 100 nM | – |
| N#Cc1cc(C(=O)N2C[C@H]3COC[C@@H](C2)C3=O)cc2nc(C(F)(F)F)c(CC3CCC(F)(F)CC3)n12 [Compound 210, 3-[(4,4-Difluorocyclohexyl)methyl]-7-[(1R,5S)-9-oxo-3-oxa-7-azabicyclo[3.3.1]nonane-7-carbonyl)-2-(trifluoromethyl)imidazo[1,2-a]pyridine-5-carbonitrile] | – | ≤ 100 nM |
| N#Cc1cc(C(=O)NC2CCOCC2)cc2nc(C(F)(F)F)c(Cc3ccc(Cl)cc3)n12 [Compound 211, 3-(4-Chlorobenzyl)-5-cyano-N-(tetrahydro-2H-pyran-4-yl)-2-(trifluoromethyl)imidazo[1,2-a]pyridine-7-carboxamide] | ≤ 100 nM | – |
| Cc1cc(C(=O)NC2CCOCC2)cc2nc(C(F)(F)F)c(Cc3ccc(F)cc3)n12 [Compound 212, 3-(4-Fluorobenzyl)-5-methyl-N-(tetrahydro-2H-pyran-4-yl)-2-(trifluoromethyl)imidazo[1,2-a]pyridine-7-carboxamide] | ≤ 100 nM | – |
| CSC(C)(C)CNC(=O)c1cc2nc(C(F)(F)F)c(CC3CCC(F)(F)CC3)n2c(Cl)c1Cl [Compound 213, 5,6-Dichloro-3-[(4,4-difluorocyclohexyl)methyl]-N-[2-methyl-2-(methylthio)propyl]-2-(trifluoromethyl)imidazo[1,2-a]pyridine-7-carboxamide] | ≤ 100 nM | – |
| Cc1cc(C(=O)NC2CCOCC2)cc2nc(C(C)(F)F)c(Cc3ccc(Cl)cc3)n12 [Compound 214, 3-(4-Chlorobenzyl)-2-(1,1-difluoroethyl)-5-methyl-N-(tetrahydro-2H-pyran-4-yl)imidazo[1,2-a]pyridine-7-carboxamide] | ≤ 100 nM | – |
| Cc1cc(C(=O)N[C@H]2C[C@@H]3CC[C@H]2O3)cc2nc(C(C)(F)F)c(Cc3ccc(Cl)cc3)n12 [Compound 215, N-[(1R,2S,4S)-7-Oxabicyclo[2.2.1]heptan-2-yl]-3-(4-chlorobenzyl)-2-(1,1-difluoroethyl)-5-methylimidazo[1,2-a]pyridine-7-carboxamide] | – | ≤ 100 nM |
| CC(C)(CNC(=O)c1cc2nc(C(F)(F)F)c(CC3CCC(F)(F)CC3)n2c(Cl)c1Cl)S(C)(=O)=O [Compound 216, 5,6-Dichloro-3-[(4,4-difluorocyclohexyl)methyl]-N-[2-methyl-2-(methylsulfonyl)propyl]-2-(trifluoromethyl)imidazo[1,2-a]pyridine-7-carboxamide] | ≤ 100 nM | – |
| Cc1cc(C(=O)NC(C)(C)C)cc2nc(C(F)(F)F)c(CC3CCC(F)(F)CC3)n12 [Compound 217, N-tert-Butyl-3-[(4,4-difluorocyclohexyl)methyl]-5-methyl-2-(trifluoromethyl)imidazo[1,2-a]pyridine-7-carboxamide] | ≤ 100 nM | – |
| Cc1cc(C(=O)NC(C)(C)C)cc2nc(C(C)(F)F)c(CC3CCC(F)(F)CC3)n12 [Compound 218, N-tert-Butyl-3-[(4,4-difluorocyclohexyl)methyl]-2-(1,1-difluoroethyl)-5-methylimidazo[1,2-a]pyridine-7-carboxamide] | ≤ 100 nM | – |
| Cc1cc(C(=O)NC(C)(C)C)cc2nc(C(C)C)c(CC3CCC(F)(F)CC3)n12 [Compound 219, N-tert-Butyl-3-[(4,4-difluorocyclohexyl)methyl]-2-isopropyl-5-methylimidazo[1,2-a]pyridine-7-carboxamide] | ≤ 100 nM | – |
| CC(C)(C)NC(=O)c1cc(Cl)n2c(CC3CCC(F)(F)CC3)c(C(F)(F)F)nc2c1 [Compound 220, N-tert-Butyl-5-chloro-3-[(4,4-difluorocyclohexyl)methyl]-2-(trifluoromethyl)imidazo[1,2-a]pyridine-7-carboxamide] | ≤ 100 nM | – |
| CC(F)(F)c1nc2cc(C(=O)NC3CCOCC3)cc(C#N)n2c1Cc1ccc(Cl)cc1 [Compound 221, 3-(4-Chlorobenzyl)-5-cyano-2-(1,1-difluoroethyl)-N-(tetrahydro-2H-pyran-4-yl)imidazo[1,2-a]pyridine-7-carboxamide] | ≤ 100 nM | – |
| CC(F)(F)c1nc2cc(C(=O)N[C@H]3C[C@@H]4CC[C@H]3O4)cc(C#N)n2c1Cc1ccc(Cl)cc1 [Compound 222, N-[(1R,2S,4S)-7-Oxabicyclo[2.2.1]heptan-2-yl]-3-(4-chlorobenzyl)-5-cyano-2-(1,1-difluoroethyl)imidazo[1,2-a]pyridine-7-carboxamide] | ≤ 100 nM | – |
| [2H]C([2H])([2H])OC(C)(C)CNC(=O)c1cc(C#N)n2c(Cc3ccc(Cl)cc3)c(C(C)(F)F)nc2c1 [Compound 223, 3-(4-Chlorobenzyl)-5-cyano-2-(1,1-difluoroethyl)-N-(2-methoxy-d3-2-methylpropyl)imidazo[1,2-a]pyridine-7-carboxamide] | ≤ 100 nM | – |
| Cc1cc(C(=O)NC2CCOCC2)cc2nc(C(C)C)c(Cc3ccc(Cl)cc3)n12 [Compound 224, 3-(4-Chlorobenzyl)-2-isopropyl-5-methyl-N-(tetrahydro-2H-pyran-4-yl)imidazo[1,2-a]pyridine-7-carboxamide] | ≤ 100 nM | – |

— patent publication US9540366B2, “Ring-fused heterocyclic compound” (Kyowa Hakko Kirin Co., Ltd., priority 2012, dated 2017)
